# In patent US20260166128A1, “HUMAN AMYLIN ANALOG, AND DERIVATIVE THEREOF AND USE THEREOF” (priority 2022, published 2026):
# Numbered stars: 1 amine (or outer) side, 2 acyl side, 3 side chain; on linkers, the order of the positions; unused ones are H or OH. Bridge positions count the residues as written; N and C are the ends. Square brackets hold non-standard residues; d marks the D form. Side chains are listed from the residue outwards. Peptide text beside a SMILES is read from it. * marks the point of attachment. C20 diacid = O=C(O)CCCCCCCCCCCCCCCCCCC(=O)*; C18 diacid = O=C(O)CCCCCCCCCCCCCCCCC(=O)*; γGlu = O=C(O)[C@H](CCC(=O)[*:2])N[*:1]; Hyp = O=C(O)[C@@H]1C[C@@H](O)CN1; AEEA = NCCOCCOCC(=O)O
# Molecular target: T1, human amylin receptor (Homo sapiens, UniProt O60896+P30988)
# T1 construct: host or cells: CHO-K1/Ga15/AMY3 cells, further stably transfected with a CRE-luciferase plasmid
# T1 sequence (P30988 25-474): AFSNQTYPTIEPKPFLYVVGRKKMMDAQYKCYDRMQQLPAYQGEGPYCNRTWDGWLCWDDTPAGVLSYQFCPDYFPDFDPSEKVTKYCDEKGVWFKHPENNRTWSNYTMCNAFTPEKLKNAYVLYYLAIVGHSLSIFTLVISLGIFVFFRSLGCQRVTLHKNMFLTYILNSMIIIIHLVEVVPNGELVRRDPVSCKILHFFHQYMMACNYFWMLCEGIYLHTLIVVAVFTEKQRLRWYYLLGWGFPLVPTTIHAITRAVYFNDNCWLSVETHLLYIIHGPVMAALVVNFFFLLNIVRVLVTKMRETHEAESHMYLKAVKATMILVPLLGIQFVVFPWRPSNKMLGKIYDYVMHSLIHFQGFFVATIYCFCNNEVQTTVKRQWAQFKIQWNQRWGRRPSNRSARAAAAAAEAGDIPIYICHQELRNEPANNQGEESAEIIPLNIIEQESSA
# T1 sequence (O60896 24-148 partner): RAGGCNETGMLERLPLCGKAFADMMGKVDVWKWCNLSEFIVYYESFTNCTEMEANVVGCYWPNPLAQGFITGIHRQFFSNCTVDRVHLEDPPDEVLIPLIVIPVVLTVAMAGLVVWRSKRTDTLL
# Assay: Luciferase assay of amylin derivatives in amylin receptor/CRE-luc CHO cell line
# Type: cell-based
# Conditions: CHO-K1/Ga15/AMY3 CRE-luc cells, 24 hours incubation, F12 medium containing 10% FBS; read-out: EC50
# Protocol: The experiment was intended to detect the activity or efficacy of the amylin derivatives on a human amylin receptor in vitro by luciferase assay.
# 50 μL of growth medium (F12 medium containing 10% FBS) was added into each well of a white 96-well plate, and the stably transfected amylin/CRE-lue CHO cells were inoculated into the white 96-well plate at a density of about 20,000 cells/well for activity determination.
row,Compound,EC50 [nM]
1,CC[C@H](C)[C@H](NC(=O)[C@H](CCCCNC(=O)CC[C@H](NC(=O)CCCCCCCCCCCCCCCCCCC(=O)O)C(=O)O)NC(=O)CNC(=O)[C@H](CC(C)C)NC(=O)[C@H](CC(N)=O)NC(=O)[C@H](CC(N)=O)NC(=O)[C@H](CO)NC(=O)[C@H](CO)NC(=O)[C@H](Cc1c[nH]cn1)NC(=O)[C@H](CCCNC(=N)N)NC(=O)[C@H](CC(C)C)NC(=O)[C@H](Cc1ccccc1)NC(=O)[C@H](CC(=O)O)NC(=O)[C@H](C)NC(=O)[C@H](CC(C)C)NC(=O)[C@H](CCCNC(=N)N)NC(=O)[C@H](CCC(N)=O)NC(=O)[C@@H](NC(=O)[C@H](C)NC(=O)[C@@H]1CSSC[C@H](NC(=O)[C@@H](N)CCCNC(=N)N)C(=O)N[C@@H](CC(N)=O)C(=O)N[C@@H]([C@@H](C)O)C(=O)N[C@@H](C)C(=O)N[C@@H]([C@@H](C)O)C(=O)N1)[C@@H](C)O)C(=O)N[C@@H](CC(C)C)C(=O)N1CCC[C@H]1C(=O)N1CCC[C@H]1C(=O)N[C@H](C(=O)N[C@@H](CC(N)=O)C(=O)N[C@H](C(=O)NCC(=O)N[C@@H](CO)C(=O)N[C@@H](CC(N)=O)C(=O)N[C@H](C(=O)N1C[C@H](O)C[C@H]1C(N)=O)[C@@H](C)O)C(C)C)[C@@H](C)O [PD102] (H-RCNTATCATQRLADFLRHSSNNLGK([γGlu-C20 diacid])ILPPTNVGSNT[Hyp]-NH2; disulfide 2-7),0.033
2,CC[C@H](C)[C@H](NC(=O)[C@H](CCCCNC(=O)CC[C@H](NC(=O)CCCCCCCCCCCCCCCCC(=O)O)C(=O)O)NC(=O)CNC(=O)[C@H](CC(C)C)NC(=O)[C@H](CC(N)=O)NC(=O)[C@H](CC(N)=O)NC(=O)[C@H](CO)NC(=O)[C@H](CO)NC(=O)[C@H](Cc1c[nH]cn1)NC(=O)[C@H](CCCNC(=N)N)NC(=O)[C@H](CC(C)C)NC(=O)[C@H](Cc1ccccc1)NC(=O)[C@H](CC(=O)O)NC(=O)[C@H](C)NC(=O)[C@H](CC(C)C)NC(=O)[C@H](CCCNC(=N)N)NC(=O)[C@H](CCC(N)=O)NC(=O)[C@@H](NC(=O)[C@H](C)NC(=O)[C@@H]1CSSC[C@H](NC(=O)[C@@H](N)CCCNC(=N)N)C(=O)N[C@@H](CC(N)=O)C(=O)N[C@@H]([C@@H](C)O)C(=O)N[C@@H](C)C(=O)N[C@@H]([C@@H](C)O)C(=O)N1)[C@@H](C)O)C(=O)N[C@@H](CC(C)C)C(=O)N1CCC[C@H]1C(=O)N1CCC[C@H]1C(=O)N[C@H](C(=O)N[C@@H](CC(N)=O)C(=O)N[C@H](C(=O)NCC(=O)N[C@@H](CO)C(=O)N[C@@H](CC(N)=O)C(=O)N[C@H](C(=O)N1C[C@H](O)C[C@H]1C(N)=O)[C@@H](C)O)C(C)C)[C@@H](C)O [PD104] (H-RCNTATCATQRLADFLRHSSNNLGK([γGlu-C18 diacid])ILPPTNVGSNT[Hyp]-NH2; disulfide 2-7),0.011
3,CC[C@H](C)[C@H](NC(=O)[C@H](CCCCNC(=O)COCCOCCNC(=O)COCCOCCNC(=O)CC[C@H](NC(=O)CCCCCCCCCCCCCCCCC(=O)O)C(=O)O)NC(=O)CNC(=O)[C@H](CC(C)C)NC(=O)[C@H](CC(N)=O)NC(=O)[C@H](CC(N)=O)NC(=O)[C@H](CO)NC(=O)[C@H](CO)NC(=O)[C@H](Cc1c[nH]cn1)NC(=O)[C@H](CCCNC(=N)N)NC(=O)[C@H](CC(C)C)NC(=O)[C@H](Cc1ccccc1)NC(=O)[C@H](CC(=O)O)NC(=O)[C@H](C)NC(=O)[C@H](CC(C)C)NC(=O)[C@H](CCCNC(=N)N)NC(=O)[C@H](CCC(N)=O)NC(=O)[C@@H](NC(=O)[C@H](C)NC(=O)[C@@H]1CSSC[C@H](NC(=O)[C@@H](N)CCCNC(=N)N)C(=O)N[C@@H](CC(N)=O)C(=O)N[C@@H]([C@@H](C)O)C(=O)N[C@@H](C)C(=O)N[C@@H]([C@@H](C)O)C(=O)N1)[C@@H](C)O)C(=O)N[C@@H](CC(C)C)C(=O)N1CCC[C@H]1C(=O)N1CCC[C@H]1C(=O)N[C@H](C(=O)N[C@@H](CC(N)=O)C(=O)N[C@H](C(=O)NCC(=O)N[C@@H](CO)C(=O)N[C@@H](CC(N)=O)C(=O)N[C@H](C(=O)N1C[C@H](O)C[C@H]1C(N)=O)[C@@H](C)O)C(C)C)[C@@H](C)O [PD105] (H-RCNTATCATQRLADFLRHSSNNLGK([AEEA-AEEA-γGlu-C18 diacid])ILPPTNVGSNT[Hyp]-NH2; disulfide 2-7),0.033
4,CC[C@H](C)[C@H](NC(=O)[C@@H]1CCCN1C(=O)[C@H](CCCCNC(=O)COCCOCCNC(=O)CC[C@H](NC(=O)CCCCCCCCCCCCCCCCCCC(=O)O)C(=O)O)NC(=O)[C@H](CC(C)C)NC(=O)[C@H](CC(N)=O)NC(=O)[C@H](CC(N)=O)NC(=O)[C@H](CO)NC(=O)[C@H](CO)NC(=O)[C@H](Cc1c[nH]cn1)NC(=O)[C@H](CCCNC(=N)N)NC(=O)[C@H](CC(C)C)NC(=O)[C@H](Cc1ccccc1)NC(=O)[C@H](CC(=O)O)NC(=O)[C@H](C)NC(=O)[C@H](CC(C)C)NC(=O)[C@H](CCCNC(=N)N)NC(=O)[C@H](CCC(N)=O)NC(=O)[C@@H](NC(=O)[C@H](C)NC(=O)[C@@H]1CSSC[C@H](NC(=O)[C@@H](N)CCCNC(=N)N)C(=O)N[C@@H](CC(N)=O)C(=O)N[C@@H]([C@@H](C)O)C(=O)N[C@@H](C)C(=O)N[C@@H]([C@@H](C)O)C(=O)N1)[C@@H](C)O)C(=O)N[C@@H](CC(C)C)C(=O)N1CCC[C@H]1C(=O)N1CCC[C@H]1C(=O)N[C@H](C(=O)N[C@@H](CC(N)=O)C(=O)N[C@H](C(=O)NCC(=O)N[C@@H](CO)C(=O)N[C@@H](CC(N)=O)C(=O)N[C@H](C(=O)N1C[C@H](O)C[C@H]1C(N)=O)[C@@H](C)O)C(C)C)[C@@H](C)O [PD106] (H-RCNTATCATQRLADFLRHSSNNLK([AEEA-γGlu-C20 diacid])PILPPTNVGSNT[Hyp]-NH2; disulfide 2-7),0.026
5,CC[C@H](C)[C@H](NC(=O)[C@@H]1CCCN1C(=O)[C@H](CCCCNC(=O)CC[C@H](NC(=O)CCCCCCCCCCCCCCCCC(=O)O)C(=O)O)NC(=O)[C@H](CC(C)C)NC(=O)[C@H](CC(N)=O)NC(=O)[C@H](CC(N)=O)NC(=O)[C@H](CO)NC(=O)[C@H](CO)NC(=O)[C@H](Cc1c[nH]cn1)NC(=O)[C@H](CCCNC(=N)N)NC(=O)[C@H](CC(C)C)NC(=O)[C@H](Cc1ccccc1)NC(=O)[C@H](CC(=O)O)NC(=O)[C@H](C)NC(=O)[C@H](CC(C)C)NC(=O)[C@H](CCCNC(=N)N)NC(=O)[C@H](CCC(N)=O)NC(=O)[C@@H](NC(=O)[C@H](C)NC(=O)[C@@H]1CSSC[C@H](NC(=O)[C@@H](N)CCCNC(=N)N)C(=O)N[C@@H](CC(N)=O)C(=O)N[C@@H]([C@@H](C)O)C(=O)N[C@@H](C)C(=O)N[C@@H]([C@@H](C)O)C(=O)N1)[C@@H](C)O)C(=O)N[C@@H](CC(C)C)C(=O)N1CCC[C@H]1C(=O)N1CCC[C@H]1C(=O)N[C@H](C(=O)N[C@@H](CC(N)=O)C(=O)N[C@H](C(=O)NCC(=O)N[C@@H](CO)C(=O)N[C@@H](CC(N)=O)C(=O)N[C@H](C(=O)N1C[C@H](O)C[C@H]1C(N)=O)[C@@H](C)O)C(C)C)[C@@H](C)O [PD107] (H-RCNTATCATQRLADFLRHSSNNLK([γGlu-C18 diacid])PILPPTNVGSNT[Hyp]-NH2; disulfide 2-7),0.027
